In the first assay the target is T1, catalytic domain of the recombinant TACE protein (Homo sapiens, UniProt P78536).
T1 construct: The catalytic domain of the recombinant TACE protein was expressed and purified; made in house
T1 sequence (P78536 223-474 limits assumed): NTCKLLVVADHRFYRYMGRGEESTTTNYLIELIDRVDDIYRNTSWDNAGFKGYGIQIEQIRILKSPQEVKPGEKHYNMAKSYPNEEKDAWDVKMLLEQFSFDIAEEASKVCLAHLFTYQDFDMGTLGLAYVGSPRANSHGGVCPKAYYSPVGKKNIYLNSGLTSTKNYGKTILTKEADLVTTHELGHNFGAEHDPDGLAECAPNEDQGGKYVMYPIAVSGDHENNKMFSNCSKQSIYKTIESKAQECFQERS
The assay can be described thus: TACE FRET assay using TACE cat. In kind it is biochemical.
Settings: not given
In a few lines:
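Initial fluorescence rate of Abz-[sequence]-Dpa pro-TNF-α peptide cleavage (substrate from 2 mM stock) read after adding substrate to enzyme (1 ug/ml) preincubated 10 min, room temperature, with inhibitor.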
`CC#CCOc1ccc(S(=O)(=O)N[C@@H](Cc2c(C)n(Cc3cccc(F)c3)c3ccc(OC)cc23)C(=O)O)cc1` [Example 198, N-{[4-(but-2-ynyloxy)phenyl]sulfonyl}-1-(3-fluorobenzyl)-5-methoxy-2-methyltryptophan]: the IC50 amounted to 340 nM.

`CC#CCOc1ccc(S(=O)(=O)N[C@@H](Cc2cn(Cc3cccc(OC)c3)c3ccc(OC)cc23)C(=O)O)cc1` [Example 52, N-{[4-(but-2-ynyloxy)phenyl]sulfonyl}-5-methoxy-1-(3-methoxybenzyl)tryptophan]: the IC50 was 2240 nM.

The same assay, now with this note: TACE FRET assay, catalytic domain of recombinant TACE; read-out: TACE IC50.
As for `CC#CCOc1ccc(S(=O)(=O)N[C@@H](Cc2cn(Cc3ccc(OC)cc3)c3ccccc23)C(=O)O)cc1` [Example 19, N-{[4-(but-2-ynyloxy)phenyl]sulfonyl}-1-(4-methoxybenzyl)-L-tryptophan], the IC50 came out at 1190 nM. The same measure, in the same setting: the result for `CC#CCOc1ccc(S(=O)(=O)N[C@H](Cc2cn(Cc3ccc(C)cc3)c3ccccc23)C(=O)O)cc1` [Example 26, N-{[4-(but-2-ynyloxy)phenyl]sulfonyl}-1-(4-methylbenzyl)-D-tryptophan] reads 3590 nM; that for “N-{[4-(but-2-ynyloxy)phenyl]sulfonyl}-methoxy-L(or D)-tryptophan [Example 222]”, 10100 nM.

Staying with this assay, now noted: read-out: TACE Inhibition (%).
In the case of `CC#CCOc1ccc(S(=O)(=O)N[C@@H](Cc2c(C)n(CC(C)C)c3ccc(Cl)cc23)C(=O)O)cc1` [Example 101, N-{[4-(but-2-ynyloxy)phenyl]sulfonyl}-5-chloro-1-isobutyl-2-methyltryptophan], the inhibition at 1 µM was 68.5%. Same read-out and setting: for `CC#CCOc1ccc(S(=O)(=O)N[C@@H](Cc2c(C)n(Cc3ccccc3OC)c3ccc(Cl)cc23)C(=O)O)cc1` [Example 89, N-{[4-(but-2-ynyloxy)phenyl]sulfonyl}-5-chloro-1-(2-methoxybenzyl)-2-methyltryptophan] the value was 53.6%; for `CC#CCOc1ccc(S(=O)(=O)N[C@@H](Cc2c(C)n(Cc3ccccc3F)c3ccccc23)C(=O)O)cc1` [Example 152, N-{[4-(but-2-ynyloxy)phenyl]sulfonyl}-1-(2-fluorobenzyl)-2-methyltryptophan], 51.7%.

Regarding `CC#CCOc1ccc(S(=O)(=O)N[C@@H](Cc2cn(CC3CCCCC3)c3ccc(C(=O)O)cc23)C(=O)O)cc1` [Example 132, N-{[4-(but-2-ynyloxy)phenyl]sulfonyl}-5-carboxy-1-(cyclohexylmethyl)tryptophan], the inhibition at 1 µM was 9.55%. Still for that read-out and setting: the result for `CC#CCOc1ccc(S(=O)(=O)N[C@@H](Cc2cn(Cc3ccc(OC)cc3)c3ccc(OC)cc23)C(=O)O)cc1` [Example 53, N-{[4-(but-2-ynyloxy)phenyl]sulfonyl}-5-methoxy-1-(4-methoxybenzyl)tryptophan] reads 30.6%; that for `CC#CCOc1ccc(S(=O)(=O)N[C@@H](Cc2c(C)n(Cc3cc(F)cc(F)c3)c3ccccc23)C(=O)O)cc1` [Example 155, N-{[4-(but-2-ynyloxy)phenyl]sulfonyl}-1-(3,5-difluorobenzyl)-2-methyltryptophan], 54.3%; that for `CC#CCOc1ccc(S(=O)(=O)N[C@@H](Cc2cn(Cc3ccccc3C#N)c3ccc(OC)cc23)C(=O)O)cc1` [Example 64, N-{[4-(but-2-ynyloxy)phenyl]sulfonyl}-1-(2-cyanobenzyl)-5-methoxytryptophan], 40.9%.

As to `CC#CCOc1ccc(S(=O)(=O)N[C@@H](Cc2c(C)n(Cc3ccc(OC)cc3)c3ccccc23)C(=O)O)cc1` [Example 148, N-{[4-(but-2-ynyloxy)phenyl]sulfonyl}-1-(4-methoxybenzyl)-2-methyltryptophan], the inhibition at 1 µM was 44.1%.

As to `CC#CCOc1ccc(S(=O)(=O)N[C@@H](Cc2cn(Cc3cccc(C(F)(F)F)c3)c3ccc(C(=O)O)cc23)C(=O)O)cc1` [Example 112, N-{[4-(but-2-ynyloxy)phenyl]sulfonyl}-5-carboxy-1-[3-(trifluoromethyl)benzyl]tryptophan], the inhibition at 1 µM worked out at 5.51%. The same measure, in the same setting: for `CC#CCOc1ccc(S(=O)(=O)N[C@@H](Cc2c(C)n(CC3CCC3)c3ccc(OC)cc23)C(=O)O)cc1` [Example 212, N-{[4-(but-2-ynyloxy)phenyl]sulfonyl}-1-(cyclobutylmethyl)-5-methoxy-2-methyltryptophan] the value was 59.5%; for `CC#CCOc1ccc(S(=O)(=O)N[C@@H](Cc2c(C)n(Cc3cccc(OC)c3)c3ccccc23)C(=O)O)cc1` [Example 147, N-{[4-(but-2-ynyloxy)phenyl]sulfonyl}-1-(3-methoxybenzyl)-2-methyltryptophan], 35.6%; for `CC#CCOc1ccc(S(=O)(=O)N[C@@H](Cc2c(C)n(Cc3ccc(OC(F)(F)F)cc3)c3ccccc23)C(=O)O)cc1` [Example 151, N-{[4-(but-2-ynyloxy)phenyl]sulfonyl}-2-methyl-1-[4-(trifluoromethoxy)benzyl]tryptophan], 24.3%. As to `CC#CCOc1ccc(S(=O)(=O)N[C@@H](Cc2cn(Cc3ccccc3)c3ccc(C(=O)O)cc23)C(=O)O)cc1` [Example 103, 1-benzyl-N-{[4-(but-2-ynyloxy)phenyl]sulfonyl}-5-carboxytryptophan], the inhibition at 1 µM was 6.16%. Same read-out and setting: for `CC#CCOc1ccc(S(=O)(=O)N[C@@H](Cc2c(C)n(C)c3ccc(OC)cc23)C(=O)O)cc1` [Example 208, N-{[4-(but-2-ynyloxy)phenyl]sulfonyl}-5-methoxy-1,2-dimethyltryptophan] the value was 61.8%; for `CC#CCOc1ccc(S(=O)(=O)N[C@@H](Cc2c(C)n(CC3CCCCC3)c3ccc(Cl)cc23)C(=O)O)cc1` [Example 102, N-{[4-(but-2-ynyloxy)phenyl]sulfonyl}-5-chloro-1-(cyclohexylmethyl)-2-methyltryptophan], 56.9%; for `CC#CCOc1ccc(S(=O)(=O)N[C@@H](Cc2cn(CC(C)C)c3ccc(C(=O)O)cc23)C(=O)O)cc1` [Example 129, N-{[4-(but-2-ynyloxy)phenyl]sulfonyl}-5-carboxy-1-isobutyltryptophan], -4.96%. The same measure, in the same setting: the result for `CC#CCOc1ccc(S(=O)(=O)N[C@@H](Cc2c(C)n(CCCCC)c3ccc(OC)cc23)C(=O)O)cc1` [Example 211, N-{[4-(but-2-ynyloxy)phenyl]sulfonyl}-5-methoxy-2-methyl-1-pentyltryptophan] reads 72.2%; that for `CC#CCOc1ccc(S(=O)(=O)N[C@@H](Cc2cn(Cc3ccc(OC)cc3)c3ccc(C#N)cc23)C(=O)O)cc1` [Example 139, N-{[4-(but-2-ynyloxy)phenyl]sulfonyl}-5-cyano-1-(4-methoxybenzyl)tryptophan], 25.1%. In the case of `CC#CCOc1ccc(S(=O)(=O)N[C@@H](Cc2cn(Cc3ccccc3C(F)(F)F)c3ccc(OC)cc23)C(=O)O)cc1` [Example 55, N-{[4-(but-2-ynyloxy)phenyl]sulfonyl}-5-methoxy-1-[2-(trifluoromethyl)benzyl]tryptophan], the inhibition at 1 µM was found to be 31.3%. Same read-out and setting: the result for `CC#CCOc1ccc(S(=O)(=O)N[C@@H](Cc2c(C)n(Cc3ccc(OC)cc3)c3ccc(OC)cc23)C(=O)O)cc1` [Example 191, N-{[4-(but-2-ynyloxy)phenyl]sulfonyl}-5-methoxy-1-(4-methoxybenzyl)-2-methyltryptophan] reads 77.5%; that for `CC#CCOc1ccc(S(=O)(=O)N[C@@H](Cc2c(C)n(Cc3ccc(C(=O)O)cc3)c3ccc(OC)cc23)C(=O)O)cc1` [Example 207, N-{[4-(but-2-ynyloxy)phenyl]sulfonyl}-1-(4-carboxybenzyl)-5-methoxy-2-methyltryptophan], 62.1%; that for `CC#CCOc1ccc(S(=O)(=O)N[C@@H](Cc2cn(Cc3cccc(OC)c3)c3ccc(C#N)cc23)C(=O)O)cc1` [Example 138, N-{[4-(but-2-ynyloxy)phenyl]sulfonyl}-5-cyano-1-(3-methoxybenzyl)tryptophan], 29.4%. In the case of `CC#CCOc1ccc(S(=O)(=O)N[C@@H](Cc2c(C)n(Cc3ccccc3OC)c3ccccc23)C(=O)O)cc1` [Example 146, N-{[4-(but-2-ynyloxy)phenyl]sulfonyl}-1-(2-methoxybenzyl)-2-methyltryptophan], the inhibition at 1 µM stood at 35.9%. For `CC#CCOc1ccc(S(=O)(=O)N[C@@H](Cc2cn(Cc3ccccc3F)c3ccc(C(=O)O)cc23)C(=O)O)cc1` [Example 115, N-{[4-(but-2-ynyloxy)phenyl]sulfonyl}-5-carboxy-1-(2-fluorobenzyl)tryptophan], the inhibition at 1 µM amounted to 4.29%. In the case of `CC#CCOc1ccc(S(=O)(=O)N[C@@H](Cc2cn(Cc3cc(OC)cc(OC)c3)c3ccc(OC)cc23)C(=O)O)cc1` [Example 54, N-{[4-(but-2-ynyloxy)phenyl]sulfonyl}-1-(3,5-dimethoxybenzyl)-5-methoxytryptophan], the inhibition at 1 µM is 38%. On to `CC#CCOc1ccc(S(=O)(=O)N[C@@H](Cc2cn(Cc3ccc(OC(F)(F)F)cc3)c3ccc(C(=O)O)cc23)C(=O)O)cc1` [Example 114, N-{[4-(but-2-ynyloxy)phenyl]sulfonyl}-5-carboxy-1-[4-(trifluoromethoxy)benzyl]tryptophan], for which the inhibition at 1 µM worked out at 10.3%. Still for that read-out and setting: for `CC#CCOc1ccc(S(=O)(=O)N[C@@H](Cc2c(C)n(CC3CCCCC3)c3ccc(OC)cc23)C(=O)O)cc1` [Example 213, N-{[4-(but-2-ynyloxy)phenyl]sulfonyl}-1-(cyclohexylmethyl)-5-methoxy-2-methyltryptophan] the value was 60.5%. On the same count and under the same terms, for `CC#CCOc1ccc(S(=O)(=O)N[C@@H](Cc2cn(Cc3ccccc3F)c3ccc(Cl)cc23)C(=O)O)cc1` [Example 79, N-{[4-(but-2-ynyloxy)phenyl]sulfonyl}-5-chloro-1-(2-fluorobenzyl)tryptophan] the value was 8.27%. On the same count and under the same terms, for `CC#CCOc1ccc(S(=O)(=O)N[C@@H](Cc2cn(Cc3cccc(C)c3)c3ccc(OC)cc23)C(=O)O)cc1` [Example 50, N-{[4-(but-2-ynyloxy)phenyl]sulfonyl}-5-methoxy-1-(3-methylbenzyl)tryptophan] the value was 30.6%.

The record behind these values is US7576222B2, “Alkynyl-containing tryptophan derivative inhibitors of TACE/matrix metalloproteinase” (priority 2004, dated 2009).
